The structures appear in SMILES notation.

The target in the experiment is T1, wild-type human cardiac sodium channel, hNav1.5 (late sodium current) (Homo sapiens, UniProt Q14524).
T1 construct: host or cells: HEK293
T1 sequence (Q14524 whole entry): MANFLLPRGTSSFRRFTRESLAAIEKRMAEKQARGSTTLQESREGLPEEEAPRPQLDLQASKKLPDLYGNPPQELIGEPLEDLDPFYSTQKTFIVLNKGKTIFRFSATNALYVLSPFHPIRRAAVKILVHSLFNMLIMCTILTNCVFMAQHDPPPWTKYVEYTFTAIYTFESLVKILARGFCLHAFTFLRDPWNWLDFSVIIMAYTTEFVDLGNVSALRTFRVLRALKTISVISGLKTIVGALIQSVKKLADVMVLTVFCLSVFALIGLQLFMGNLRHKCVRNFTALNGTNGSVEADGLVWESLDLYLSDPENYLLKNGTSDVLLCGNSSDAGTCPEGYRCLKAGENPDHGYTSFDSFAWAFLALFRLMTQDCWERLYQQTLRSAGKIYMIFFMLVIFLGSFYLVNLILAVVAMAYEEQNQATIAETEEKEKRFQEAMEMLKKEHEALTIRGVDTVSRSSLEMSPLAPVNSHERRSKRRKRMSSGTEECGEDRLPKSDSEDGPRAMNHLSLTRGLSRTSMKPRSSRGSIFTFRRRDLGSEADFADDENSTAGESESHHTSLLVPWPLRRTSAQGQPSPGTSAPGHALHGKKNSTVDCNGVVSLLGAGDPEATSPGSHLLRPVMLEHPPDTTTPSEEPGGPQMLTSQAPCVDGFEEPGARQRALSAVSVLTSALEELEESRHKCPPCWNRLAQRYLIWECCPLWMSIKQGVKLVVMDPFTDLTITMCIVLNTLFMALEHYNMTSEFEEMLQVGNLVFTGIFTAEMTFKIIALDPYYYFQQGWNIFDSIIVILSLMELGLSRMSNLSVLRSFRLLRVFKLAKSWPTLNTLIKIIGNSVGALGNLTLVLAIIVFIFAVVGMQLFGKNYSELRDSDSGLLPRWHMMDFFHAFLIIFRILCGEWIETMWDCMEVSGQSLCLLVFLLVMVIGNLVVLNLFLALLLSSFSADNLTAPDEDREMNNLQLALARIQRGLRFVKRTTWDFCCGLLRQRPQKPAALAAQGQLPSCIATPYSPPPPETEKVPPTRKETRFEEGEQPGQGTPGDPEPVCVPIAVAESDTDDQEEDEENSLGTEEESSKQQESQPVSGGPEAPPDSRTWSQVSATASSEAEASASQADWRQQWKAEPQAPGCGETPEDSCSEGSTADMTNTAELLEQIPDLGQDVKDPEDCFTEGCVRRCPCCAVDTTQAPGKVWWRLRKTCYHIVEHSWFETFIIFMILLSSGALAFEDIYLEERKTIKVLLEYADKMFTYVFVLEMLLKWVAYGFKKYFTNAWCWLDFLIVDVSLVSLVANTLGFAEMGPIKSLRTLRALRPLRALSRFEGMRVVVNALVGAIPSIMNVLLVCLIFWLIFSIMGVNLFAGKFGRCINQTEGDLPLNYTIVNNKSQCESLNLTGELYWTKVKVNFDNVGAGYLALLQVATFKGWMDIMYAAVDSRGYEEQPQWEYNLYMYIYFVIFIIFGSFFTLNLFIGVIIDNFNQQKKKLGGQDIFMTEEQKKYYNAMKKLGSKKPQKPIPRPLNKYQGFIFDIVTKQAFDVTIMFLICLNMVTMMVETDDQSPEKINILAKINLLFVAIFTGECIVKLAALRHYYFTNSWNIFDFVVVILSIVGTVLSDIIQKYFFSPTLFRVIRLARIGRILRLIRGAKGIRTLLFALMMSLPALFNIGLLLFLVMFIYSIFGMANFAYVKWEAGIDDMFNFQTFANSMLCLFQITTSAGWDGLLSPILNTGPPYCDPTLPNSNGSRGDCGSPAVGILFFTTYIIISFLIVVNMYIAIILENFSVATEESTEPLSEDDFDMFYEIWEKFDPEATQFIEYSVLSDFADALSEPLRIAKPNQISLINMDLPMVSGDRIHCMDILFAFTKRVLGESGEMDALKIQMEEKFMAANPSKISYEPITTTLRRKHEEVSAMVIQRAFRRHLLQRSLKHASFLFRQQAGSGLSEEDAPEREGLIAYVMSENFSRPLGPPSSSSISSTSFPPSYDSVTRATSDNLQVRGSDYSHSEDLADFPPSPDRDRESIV
The experiment in a line: Late INa screening assay (PatchXpress whole cell patch clamp). Conditions: 10 μM test compound; HEK293 hNav1.5; late INa generated with 10 μM Tefluthrin (some experiments 50 nM ATX II); read-out: Late INa % blk (10 μM test cmpd). The class given is cell-based. As for the experimental part: The late sodium current (Late INa) and peak sodium current (Peak INa) assays are performed on an automated electrophysiology platform, PatchXpress 7000A (MDS Analytical Technologies, Sunnyvale, Calif.), which uses the whole cell patch clamp technique to measure currents through the cell membrane of up to 16 cells at a time. The assay uses an HEK293 (human embryonic kidney) cell line heterologously expressing the wild-type human cardiac sodium channel, hNav1.5, purchased from Millipore (Billerica, Mass.). No beta subunits were coexpressed with the Na channel alpha subunit. Cells are maintained with standard tissue culture procedures and stable channel expression is maintained with 400 μg/ml Geneticin in the culture medium. […] Experiments are carried out at 24-27° C.
For both the Late INa and Peak INa assays, series resistance compensation is set to 50% and whole-cell compensation is performed automatically. […] Currents through open sodium channels are automatically recorded and stored in the DataXpress2 database (MDS Analytical Technologies, Sunnyvale, Calif.). Analysis is performed using DataXpress2 analysis software and data are compiled in Excel.
Compound stocks are routinely made in glass vials to 10 mM in dimethyl sulfoxide (DMSO). In some cases, when compounds are not soluble in DMSO, they are made in 100% ethanol. Stocks are sonicated as necessary. The extracellular solution for screening Late INa is composed of: 140 mM NaCl, 4 mM KCl, 1.8 mM CaCl2, 0.75 mM MgCl2, and 5 mM HEPES with pH adjusted to 7.4 using NaOH. The extracellular solution for screening Peak INa is composed of: 20 mM NaCl, 120 mM N-methyl-D glucamine, 4 mM KCl, 1.8 mM CaCl2, 0.75 mM MgCl2, and 5 mM HEPES with pH adjusted to 7.4 using HCl. The intracellular solution used to perfuse the inside of the cells for both the Late INa and Peak INa assays contains: 120 mM CsF, 20 mM CsCl, 5 mM EGTA, 5 mM HEPES and pH adjusted to 7.4 with CsOH. […] The 0Na extracellular solution used at the end of each experiment for the Late INa and Peak INa assays to measure baseline current contains: 140 mM N-methyl-D-glucamine; 4 mM KCl; 1.8 mM CaCl2; 0.75 mM MgCl2; 5 mM HEPES and pH was adjusted to 7.4 with HCl.
For the Late INa assay, sodium channels are activated every 10 seconds (0.1 Hz) by depolarizing the cell membrane to −20 mV for 250 milliseconds (ms) from a holding potential of −120 mV. In response to a −20 mV voltage step, typical Nav1.5 sodium currents activate rapidly to a peak negative current and then inactivate nearly completely within […].
All compounds are tested to determine their activity in blocking the late sodium current. Late INa current is generated by adding 10 μM Tefluthrin (pyrethroid) to the extracellular solution while recording Na currents For some experiments, 50 nM ATX II (sea anemone toxin), another late Na activator, was used to generate the late component. […] After establishing the whole cell recording configuration, late INa activators are added to each well 4 times over a 16-17 minute period so that the late component of the Na current reaches a stable value. […] Measurements are made at the end of exposure to the third compound addition and values are normalized to the current level when all Na^+ is removed from the extracellular solution after two additions of ONa-ECF. Results are reported as percent block of late INa
For orientation: The patch-clamp technique gives a direct electrical read-out from membranes.
Turning to `O=S(=O)(C1CC1)N(Cc1cccnc1)c1ccc(-c2cccc(OC(F)(F)F)c2)c(Cl)c1` [PT-081, N-[2-chloro-3′-(trifluoromethoxy)biphenyl-4-yl]-N-(pyridin-3-ylmethyl)cyclopropanesulfonamide], the inhibition at 10 µM came to 40.4%. The figure for `CS(=O)(=O)Nc1ccc(-c2ccc(OC(F)(F)F)cc2)cc1` [PT-086, N-[4′-(trifluoromethoxy)biphenyl-4-yl]methanesulfonamide] is 9.4%; for `COc1cc(N(CC(=O)O)S(C)(=O)=O)ccc1-c1cccc(OC(F)(F)F)c1` [PT-089, N-[2-methoxy-3′-(trifluoromethoxy)biphenyl-4-yl]-N-(methylsulfonyl)glycine] it is -4.1%. As to `CS(=O)(=O)N(CC(=O)O)c1ccc(-c2ccc(Cl)c(F)c2)c(Cl)c1` [PT-092, N-(2,4′-dichloro-3′-fluorobiphenyl-4-yl)-N-(methylsulfonyl)glycine], the inhibition at 10 µM was -2.4%. In the case of `CS(=O)(=O)Nc1ccc(-c2ccc(OC(F)(F)F)cc2)c(Cl)c1` [PT-094, N-[2-chloro-4′-(trifluoromethoxy)biphenyl-4-yl]methanesulfonamide], the inhibition at 10 µM is 5.6%. With `CS(=O)(=O)Nc1ccc(-c2ccc(F)cc2Cl)cc1Cl` [PT-098, N-(2′,3-dichloro-4′-fluorobiphenyl-4-yl)methanesulfonamide], the inhibition at 10 µM was 36.4%. For the compound `CS(=O)(=O)Nc1ccc(-c2ccc(OC(F)(F)F)cc2)cc1OC(F)(F)F` [PT-099, N-[3,4′-bis(trifluoromethoxy)biphenyl-4-yl]methanesulfonamide], the inhibition at 10 µM worked out at 8.9%. Then `CS(=O)(=O)Nc1ccc(-c2cccc(OC(F)(F)F)c2)cc1OC(F)(F)F` [PT-100, N-[3,3′-bis(trifluoromethoxy)biphenyl-4-yl]methanesulfonamide], with -0.7%. As for `CC(C)(C)OC(=O)CN(c1ccc(-c2cccc(OC(F)(F)F)c2)c(F)c1)S(C)(=O)=O` [PT-101, tert-butyl N-[2-fluoro-3′-(trifluoromethoxy)biphenyl-4-yl]-N-(methylsulfonyl)glycinate], the inhibition at 10 µM came to 72.9%. The figure for `CC(C)(C)OC(=O)CN(c1ccc(-c2ccc(F)c(Cl)c2)c(Cl)c1)S(C)(=O)=O` [PT-102, tert-butyl N-(2,3′-dichloro-4′-fluorobiphenyl-4-yl)-N-(methylsulfonyl)glycinate] is 53.6%. Turning to `CS(=O)(=O)N(CC(=O)O)c1ccc(-c2cccc(OC(F)(F)F)c2)c(F)c1` [PT-103, N-[2-fluoro-3′-(trifluoromethoxy)biphenyl-4-yl]-N-(methylsulfonyl)glycine], the inhibition at 10 µM was 21.2%. As for `CS(=O)(=O)N(CC(=O)O)c1ccc(-c2ccc(F)c(Cl)c2)c(Cl)c1` [PT-104, N-(2,3′-dichloro-4′-fluorobiphenyl-4-yl)-N-(methylsulfonyl)glycine], the inhibition at 10 µM was found to be 14.2%. As to `Cc1cc(N([C@@H](C)C(=O)O)S(C)(=O)=O)ccc1-c1ccc(Oc2ccccc2)cc1` [PT-105, N-(2-methyl-4′-phenoxybiphenyl-4-yl)-N-(methylsulfonyl)alanine], the inhibition at 10 µM came out at 5.8%.

Regarding `Cc1cc(-c2ccc(Oc3ccccc3)cc2)c(Cl)cc1N(CC(=O)O)S(C)(=O)=O` [PT-106, N-(2-chloro-5-methyl-4′-phenoxybiphenyl-4-yl)-N-(methylsulfonyl)glycine], the inhibition at 10 µM is 42%.

`Cc1cc(N(Cc2ccc(C(=O)OC(C)(C)C)cc2)S(C)(=O)=O)ccc1-c1ccc(Oc2ccccc2)cc1` [PT-107, tert-butyl 4-{[(2-methyl-4′-phenoxybiphenyl-4-yl)(methylsulfonyl)amino]methyl}benzoate]: the inhibition at 10 µM came out at 21.2%. On to `COc1ccc(NS(C)(=O)=O)cc1-c1cccc(OC(F)(F)F)c1` [PT-109, N-[6-methoxy-3′-(trifluoromethoxy)biphenyl-3-yl]methanesulfonamide], for which the inhibition at 10 µM was found to be 35.1%. Consider `COc1ccc(NS(C)(=O)=O)cc1-c1ccc(Cl)c(F)c1` [PT-110, N-(4′-chloro-3′-fluoro-6-methoxybiphenyl-3-yl)methanesulfonamide], for which the inhibition at 10 µM worked out at 39.9%.

Take `CS(=O)(=O)N(CC(=O)O)c1ccc(-c2ccc(C(F)(F)F)cc2)c(Cl)c1` [PT-111, N-[2-chloro-4′-(trifluoromethyl)biphenyl-4-yl]-N-(methylsulfonyl)glycine]: the inhibition at 10 µM turned out to be 14.6%. Take `Cc1cc(-c2ccc(Oc3ccccc3)cc2)c(Cl)cc1N(Cc1ccc(C(=O)O)cc1)S(C)(=O)=O` [PT-113, 4-{[(2-chloro-5-methyl-4′-phenoxybiphenyl-4-yl)(methylsulfonyl)amino]methyl}benzoic acid]: the inhibition at 10 µM was found to be 34%. For the compound `O=S(=O)(Nc1ccc(-c2ccc(Oc3ccccc3)cc2)cc1OC(F)(F)F)C1CC1` [PT-114, N-[4′-phenoxy-3-(trifluoromethoxy)biphenyl-4-yl]cyclopropanesulfonamide], the inhibition at 10 µM came out at 14.1%. Turning to `N#Cc1cc(-c2ccc(Oc3ccccc3)cc2)ccc1NS(=O)(=O)C1CC1` [PT-115, N-(3-cyano-4′-phenoxybiphenyl-4-yl)cyclopropanesulfonamide], the inhibition at 10 µM is 61.8%. For the compound `COC(=O)c1cc(-c2ccc(Oc3ccccc3)cc2)ccc1NS(=O)(=O)C1CC1` [PT-116, methyl 4-[(cyclopropylsulfonyl)amino]-4′-phenoxybiphenyl-3-carboxylate], the inhibition at 10 µM turned out to be 11.2%. On to `O=C(O)c1cc(-c2ccc(Oc3ccccc3)cc2)ccc1NS(=O)(=O)C1CC1` [PT-117, 4-[(cyclopropylsulfonyl)amino]-4′-phenoxybiphenyl-3-carboxylic acid], for which the inhibition at 10 µM stood at 40.7%. Consider `COC(=O)c1cc(-c2ccc(Oc3ccccc3)cc2)ccc1NS(C)(=O)=O` [PT-118, methyl 4-[(methylsulfonyl)amino]-4′-phenoxybiphenyl-3-carboxylate], for which the inhibition at 10 µM was 40.8%. Then `CS(=O)(=O)Nc1ccc(-c2ccc(Oc3ccccc3)cc2)cc1OC(F)(F)F` [PT-119, N-[4′-phenoxy-3-(trifluoromethoxy)biphenyl-4-yl]methanesulfonamide], with 6.6%. Then `CS(=O)(=O)Nc1ccc(-c2ccc(Oc3ccccc3)cc2)cc1C(=O)O` [PT-120, 4-[(methylsulfonyl)amino]-4′-phenoxybiphenyl-3-carboxylic acid], with 27%.

For `COC(=O)c1cc(-c2ccc(C(F)(F)F)cc2)ccc1NS(C)(=O)=O` [PT-121, methyl 4-[(methylsulfonyl)amino]-4′-(trifluoromethyl)biphenyl-3-carboxylate], the inhibition at 10 µM amounted to 40.5%. Consider `CS(=O)(=O)Nc1ccc(-c2ccc(C(F)(F)F)cc2)cc1C(=O)O` [PT-122, 4-[(methylsulfonyl)amino]-4′-(trifluoromethyl)biphenyl-3-carboxylic acid], for which the inhibition at 10 µM is 25.4%. Take `N#Cc1cc(NS(=O)(=O)C2CC2)ccc1-c1ccc(Oc2ccccc2)cc1` [PT-124, N-(2-cyano-4′-phenoxybiphenyl-4-yl)cyclopropanesulfonamide]: the inhibition at 10 µM was found to be 32.2%. On to `COc1cccc(S(=O)(=O)Nc2cccc(-c3ccc(Cl)cc3)c2)c1` [PT-127, N-(4′-chlorobiphenyl-3-yl)-3-methoxybenzenesulfonamide], for which the inhibition at 10 µM amounted to 25%. On to `CC(C)(C)OC(=O)CN(c1ccc(-c2ccc(C(F)(F)F)cc2)c(Cl)c1)S(C)(=O)=O` [PT-128, tert-butyl 2-(N-(2-chloro-4′-(trifluoromethyl)biphenyl-4-yl)methylsulfonamido)acetate], for which the inhibition at 10 µM is 25.7%. Turning to `C#Cc1cc(NS(C)(=O)=O)ccc1-c1ccc(Oc2ccccc2)cc1` [PT-129, N-(2-ethynyl-4′-phenoxybiphenyl-4-yl)methanesulfonamide], the inhibition at 10 µM stood at 44.4%.

(Values after patent US8389500B2, “Fused heterocyclic compounds as ion channel modulators” (Gilead Sciences, Inc., priority 2008, dated 2013).)
